Source: paper PMC11249646, “Small-Molecule Disruptors of the Interaction between Calcium- and Integrin-Binding Protein 1 and Integrin αIIbβ3 as Novel Antiplatelet Agents” (ACS Pharmacology & Translational Science, 2024)
Values after ≈ are worked out from the molar mass of the structure shown. Like-named read-outs stand apart in the source and are kept apart here.

Key:
[1] = target: T1, CIB1 and αIIb interaction (GST-CIB1 : F-αIIb peptide) (Homo sapiens, UniProt Q99828); assay: FP assay, 384-well format (screen); format: binding; conditions: 384-well FP assay; Table 1; read-out: FP assay IC50
T1 construct: made in house; host or cells: BL-21 plus RIL cells (E. coli)
T1 sequence (Q99828 1-191): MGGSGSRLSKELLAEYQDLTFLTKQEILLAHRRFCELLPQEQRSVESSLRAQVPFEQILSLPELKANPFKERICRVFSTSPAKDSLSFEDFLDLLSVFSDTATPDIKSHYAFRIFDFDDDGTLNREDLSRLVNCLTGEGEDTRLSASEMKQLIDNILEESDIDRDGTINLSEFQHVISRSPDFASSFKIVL

[2] = target: T2, CIB1 and αIIb interaction (CIB1-GST : F-αIIb peptide) (Homo sapiens, UniProt Q99828); assay: FP assay, 1536-well qHTS format (primary and confirmatory screen); format: binding; conditions: for Confirm? (confirmatory screen): YES/NO; for Curve Class: several classes where COUNT > 1
T2 construct: made in house; host or cells: BL-21 plus RIL cells (E. coli)
T2 sequence (Q99828 1-191): T1 sequence (Q99828 1-191)

[3] = target: T3, GST-CIB1 : F-scrambled peptide (Homo sapiens, UniProt Q99828); assay: FP scrambled-peptide counter screen, 1536-well format; format: binding; conditions: for Curve Class (counterscreen): negative sign = inhibitory curve; for Efficacy (%) (counterscreen) / Curve Class (counterscreen) / IC50: counterscreen; for IC50: read-out: IC50 [μM] (counterscreen)
T3 construct: made in house; host or cells: BL-21 plus RIL cells (E. coli)
T3 sequence (Q99828 1-191): T1 sequence (Q99828 1-191)

washed human platelets = assay: Human platelet aggregation assay (thrombin-induced); format: cell-based; conditions: for inhibition at 10 µM: Homo sapiens, Platelet, single concentration of 10 μM (n = 3), thrombin; for Thrombin Assay 10 µM (%): platelet aggregation inhibition at 10 µM
Source text: A classical challenge in target-based drug discovery is moving from biochemical to cellular assay and the essential step of determining if the compounds of interest can perform in a cellular context. After characterization of the compounds in a series of biochemical assay formats, our next step was to assess their activity in a cellular environment. Our previous studies have shown that the interaction of the cytoplasmic domain of integrin αIIbβ3, a key regulator of platelet aggregation, with CIB1, is involved in downstream signaling in platelet activation and aggregation. We sought to determine whether our candidate compounds were inhibiting this interaction by evaluating them for platelet function in a human platelet aggregation assay. We prepared platelet-rich plasma (PRP) and washed the platelets as previously described[44] and then performed a platelet aggregation assay using the washed platelet suspensions (2 × 10^8/platelets/mL) followed by the recording of aggregation traces (see Materials and Methods Section). To induce platelet aggregation, 0.03 U/mL of thrombin, a physiological agonist of platelet activation, was used.
Figure 6 Effect of compounds on human platelet activation. Representative platelet aggregation tracings of washed human platelet suspensions pretreated for 30 min at 37 °C with vehicle (DMSO) or compounds at indicated concentrations followed by activation with thrombin (0.03–0.1 U/mL). Panel (A): NCGC00071855. Panel (B–D): NCGC00351170. Panel (E): CD62P exposure was in the presence of NCGC00351170. Data represents mean ± SEM, n = 4 individual experiments; ns = non significant *P < 0.05, ***P < 0.001, ****P < 0.0001.
Whole blood was drawn by venipuncture from healthy adult volunteers (of both gender and race) with informed consent. Approval was obtained from the institutional review boards of Thomas Jefferson University, according to the Declaration of Helsinki. Blood was collected in acidified citrate dextrose as an anticoagulant. Platelet-rich plasma (PRP) and washed platelets were prepared, as previously described.[44] Platelet aggregation was performed using washed platelet suspensions containing 2 × 10^8 platelets/mL using a Chrono-Log Lumi-Aggregometer (Chrono-Log), as described previously.[11] Aggregation traces were recorded by using Aggrolink software (Chrono-Log). Thrombin-induced P-selectin (CD62P) exposure was performed using Accuri C6 flowcytometer (BD Bioscience) as described previously.[11]
Figure S9: Effect of compounds on human platelet activation. Representative platelet aggregation
tracings of washed human platelet suspensions treated with vehicle (DMSO) or indicated
compounds at 10 μM for 30 minutes at 37 °C followed by activation with thrombin (0.03U/mL).

[4] = In vitro ADME: solubility; format: physicochemical; conditions: read-out: Solubility
[5] = In vitro ADME: PAMPA permeability
[6] = confirmatory screen, qHTS curve class, negative sign = inhibitory curve
[7] = confirmatory screen, read-out: IC50 [μM] (confirmatory screen)
[8] = qHTS primary screen hits, Table S2, negative = inhibition
[9] = qHTS primary screen hits, Table S2, negative sign = inhibitory curve
[10] = qHTS primary screen hits, Table S2, read-out: IC50

SMILES: COc1ccc(C(=O)c2no[n+]([O-])c2C(=O)c2ccc(OC)cc2)cc1.O=C(O)C(F)(F)F [NCGC00064079-03]
- IC50 [1]: 4.53 µM
- Efficacy (%) (confirmatory screen) ([2]; confirmatory screen): -37%
- Confirm? (confirmatory screen) ([2]; confirmatory screen): YES
- Curve Class (confirmatory screen) [2, 6]: -1.4
- IC50 [2, 7]: 6.3 µM
- Efficacy (%) ([2]; qHTS FP screen hits, Table S2, negative = inhibition): -27%
- IC50 ([2]; qHTS FP screen hits, Table S2, read-out: IC50): 8.9 µM
- Efficacy (%) (counterscreen) [3]: -30%
- Curve Class (counterscreen) ([3]; qHTS curve class): -1.4
- IC50 [3]: 3.2 µM
- inhibition at 10 µM (washed human platelets): 99%
- Thrombin Assay 10 µM (%) (washed human platelets): 99%
- solubility [4]: 9 µg/mL
- Papp [5]: 285 ×10⁻⁶ cm/s

SMILES: Cc1ccccc1C(=O)c1no[n+]([O-])c1C(=O)c1ccccc1C.O=C(O)C(F)(F)F [NCGC00351166-01]
- IC50 [1]: 4.26 µM
- CONFIRMATORY SCREEN Confirm? ([2]; confirmatory screen, YES/NO call): YES
- CONFIRMATORY SCREEN Curve Class [2, 6]: -1.4
- CONFIRMATORY SCREEN Efficacy (%) ([2]; confirmatory screen, negative = inhibition): -39%
- IC50 ([2]; confirmatory screen, read-out: CONFIRMATORY SCREEN IC50): 12.6 µM
- Efficacy (%) [2, 8]: -19%
- Curve Class [2, 9]: -2.4
- IC50 [2, 10]: 31.6 µM
- COUNTERSCREEN Efficacy (%) ([3]; scrambled-peptide counterscreen): -24%
- COUNTERSCREEN Confirm? ([3]; scrambled-peptide counterscreen, YES/NO call): YES
- COUNTERSCREEN Curve Class ([3]; scrambled-peptide counterscreen, qHTS curve class): 4
- inhibition at 10 µM (washed human platelets): 77%
- Thrombin Assay 10 µM (%) (washed human platelets): 77%
- solubility [4]: 2 µg/mL
- Papp [5]: < 1 ×10⁻⁶ cm/s

SMILES: O=C(c1ccccc1)c1no[n+]([O-])c1C(=O)c1ccccc1 [NCGC00351168-02]
- IC50 [1]: 7.85 µM
- Efficacy (%) (confirmatory screen) ([2]; confirmatory screen): -54%
- Confirm? (confirmatory screen) ([2]; confirmatory screen): YES
- Curve Class (confirmatory screen) [2, 6]: -2.2
- IC50 [2, 7]: 31.6 µM
- Efficacy (%) [2, 8]: -49%
- Curve Class [2, 9]: -1.2
- IC50 [2, 10]: 25.1 µM
- Efficacy (%) (counterscreen) [3]: -34%
- Curve Class (counterscreen) ([3]; qHTS curve class): -1.4
- IC50 [3]: 25.1 µM
- inhibition at 10 µM (washed human platelets): 97%
- Thrombin Assay 10 µM (%) (washed human platelets): 97%
- solubility [4]: 26 µg/mL (≈ 88.4 µM)
- Papp [5]: 2 ×10⁻⁶ cm/s
